Among the data in ChEMBL document CHEMBL1250451, “Mechanistic insights into a Ca2+-dependent family of alpha-mannosidases in a human gut symbiont” (Nat Chem Biol, 2010) are Activity values, retold here.

What all share (format): protein assay
Assay [1] addresses T1, Alpha-1,2-mannosidase (BT_2199) (Bacteroides thetaiotaomicron) (UniProt Q8A5N9).
T1 sequence (whole entry): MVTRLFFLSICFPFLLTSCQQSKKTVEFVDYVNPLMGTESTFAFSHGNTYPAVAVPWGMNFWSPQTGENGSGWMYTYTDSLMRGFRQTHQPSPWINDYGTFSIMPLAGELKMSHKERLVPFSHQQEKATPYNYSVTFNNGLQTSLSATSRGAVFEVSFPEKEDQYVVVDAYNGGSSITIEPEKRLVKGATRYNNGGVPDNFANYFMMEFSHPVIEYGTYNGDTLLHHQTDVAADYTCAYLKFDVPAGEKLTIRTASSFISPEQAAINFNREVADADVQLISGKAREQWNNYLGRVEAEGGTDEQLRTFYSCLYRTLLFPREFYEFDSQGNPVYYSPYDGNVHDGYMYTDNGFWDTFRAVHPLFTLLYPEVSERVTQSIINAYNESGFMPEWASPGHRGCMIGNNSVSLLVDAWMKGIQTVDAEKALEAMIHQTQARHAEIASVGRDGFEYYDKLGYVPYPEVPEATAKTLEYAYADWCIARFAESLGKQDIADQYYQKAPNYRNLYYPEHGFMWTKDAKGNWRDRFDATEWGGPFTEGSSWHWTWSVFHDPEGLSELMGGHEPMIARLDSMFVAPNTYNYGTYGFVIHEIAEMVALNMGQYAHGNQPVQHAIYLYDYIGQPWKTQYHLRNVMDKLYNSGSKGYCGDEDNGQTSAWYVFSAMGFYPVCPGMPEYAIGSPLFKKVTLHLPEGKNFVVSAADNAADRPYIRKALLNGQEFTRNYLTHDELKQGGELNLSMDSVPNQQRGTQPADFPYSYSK
Briefly: Activity of Bacteroides thetaiotaomicron GH92 alpha-mannosidase 2199 assessed as recovery of enzyme activity at 1 mM in presence of 7 mM Mn(2+) ions and in presence of 5 mM EDTA in 100 mM pH 7 MOPS buffer relative to enzyme activity in presence of calcium.

Assay [2] has as its target T1, Alpha-1,2-mannosidase (BT_2199) (Bacteroides thetaiotaomicron). In words: Activity of Bacteroides thetaiotaomicron GH92 alpha-mannosidase 2199 assessed as recovery of enzyme activity at 1 mM in presence of 7 mM Ba(2+) ions and in presence of 5 mM EDTA in 100 mM pH 7 MOPS buffer relative to enzyme activity in presence of calcium.
The target is the same in assay [3]. In words: Activity of Bacteroides thetaiotaomicron GH92 alpha-mannosidase 2199 assessed as recovery of enzyme activity at 1 mM in presence of 7 mM Ti(3+) ions and in presence of 5 mM EDTA in 100 mM pH 7 MOPS buffer relative to enzyme activity in presence of calcium.
Assay [4] has the same target. Briefly: Activity of Bacteroides thetaiotaomicron GH92 alpha-mannosidase 2199 assessed as recovery of enzyme activity at 1 mM in presence of 7 mM V(3+) ions and in presence of 5 mM EDTA in 100 mM pH 7 MOPS buffer relative to enzyme activity in presence of calcium.
The target is the same in assay [5]. Briefly: Activity of Bacteroides thetaiotaomicron GH92 alpha-mannosidase 2199 assessed as recovery of enzyme activity at 1 mM in presence of 7 mM Ca(2+) ions and in presence of 5 mM EGTA in 100 mM pH 7 MOPS buffer relative to enzyme activity in presence of calcium.
For assay [6], the target named is T2, Alpha-1,2-mannosidase (BT_3990) (Bacteroides thetaiotaomicron) (UniProt Q8A0N1).
T2 sequence (whole entry): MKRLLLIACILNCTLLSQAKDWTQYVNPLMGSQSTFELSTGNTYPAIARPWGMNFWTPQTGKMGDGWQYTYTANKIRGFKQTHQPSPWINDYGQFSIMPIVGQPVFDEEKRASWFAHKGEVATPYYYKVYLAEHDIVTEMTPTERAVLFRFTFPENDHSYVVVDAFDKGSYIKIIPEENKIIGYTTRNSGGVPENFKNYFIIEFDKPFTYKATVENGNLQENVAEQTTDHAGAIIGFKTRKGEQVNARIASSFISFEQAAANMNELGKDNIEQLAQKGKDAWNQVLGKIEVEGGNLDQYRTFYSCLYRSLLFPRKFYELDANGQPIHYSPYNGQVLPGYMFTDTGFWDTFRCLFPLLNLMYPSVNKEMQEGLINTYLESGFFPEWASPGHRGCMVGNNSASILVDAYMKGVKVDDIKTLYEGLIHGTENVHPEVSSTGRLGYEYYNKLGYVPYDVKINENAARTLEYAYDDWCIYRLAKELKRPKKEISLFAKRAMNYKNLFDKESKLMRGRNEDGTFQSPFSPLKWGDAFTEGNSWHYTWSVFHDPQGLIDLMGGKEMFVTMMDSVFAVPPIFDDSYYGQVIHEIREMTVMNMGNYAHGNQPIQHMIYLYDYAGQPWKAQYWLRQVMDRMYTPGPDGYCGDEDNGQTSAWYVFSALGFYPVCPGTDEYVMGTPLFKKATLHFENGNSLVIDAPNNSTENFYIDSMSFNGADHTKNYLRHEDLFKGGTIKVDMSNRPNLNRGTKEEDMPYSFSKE
In words: Activity of Bacteroides thetaiotaomicron GH92 alpha-mannosidase 3990 assessed as recovery of enzyme activity at 1 mM in presence of 7 mM Ca(2+) ions and in presence of 5 mM EDTA in 100 mM pH 7 MOPS buffer relative to enzyme activity in presence of calcium.

Assay [7] deals with T2, Alpha-1,2-mannosidase (BT_3990) (Bacteroides thetaiotaomicron). In words: Activity of Bacteroides thetaiotaomicron GH92 alpha-mannosidase 3990 assessed as recovery of enzyme activity at 1 mM in presence of 7 mM Ba(2+) ions and in presence of 5 mM EDTA in 100 mM pH 7 MOPS buffer relative to enzyme activity in presence of calcium.
Assay [8] has the same target. In words: Activity of Bacteroides thetaiotaomicron GH92 alpha-mannosidase 3990 assessed as recovery of enzyme activity at 1 mM in presence of 7 mM Sc(3+) ions and in presence of 5 mM EDTA in 100 mM pH 7 MOPS buffer relative to enzyme activity in presence of calcium.
For assay [9] the target is unchanged. In words: Activity of Bacteroides thetaiotaomicron GH92 alpha-mannosidase 3990 assessed as recovery of enzyme activity at 1 mM in presence of 7 mM Ti(3+) ions and in presence of 5 mM EDTA in 100 mM pH 7 MOPS buffer relative to enzyme activity in presence of calcium.
Assay [10] has the same target. Briefly: Activity of Bacteroides thetaiotaomicron GH92 alpha-mannosidase 3990 assessed as recovery of enzyme activity at 1 mM in absence of metal and in presence of 5 mM EGTA in 100 mM pH 7 MOPS buffer relative to enzyme activity in presence of calcium.
Assay [11] has the same target. In words: Activity of Bacteroides thetaiotaomicron GH92 alpha-mannosidase 3990 assessed as recovery of enzyme activity at 1 mM in presence of 7 mM Mg(2+) ions and in presence of 5 mM EGTA in 100 mM pH 7 MOPS buffer relative to enzyme activity in presence of calcium.
For assay [12] the target is unchanged. In words: Activity of Bacteroides thetaiotaomicron GH92 alpha-mannosidase 3990 assessed as recovery of enzyme activity at 1 mM in presence of 7 mM Co(2+) ions and in presence of 5 mM EGTA in 100 mM pH 7 MOPS buffer relative to enzyme activity in presence of calcium.

Structures are written as SMILES.

As to `O=[N+]([O-])c1ccc(O[C@H]2O[C@H](CO)[C@@H](O)[C@H](O)[C@@H]2O)cc1`, the Activity in assay [1] was determined as 8%; in [2], 0%; in assay [3], 0%; in assay [4], 0%; in assay [5] it was 100%; in assay [6], 100%. For the same molecule, the Activity came to 0% in assay [7]; 0% in assay [8]; 0% in [9]; 0% in [10]; 0% in assay [11]; 11% in [12].
